# Patent US20200231638A1, “STABILIZED ANTI-MICROBIAL PEPTIDES” (priority 2015, published 2020)
# Read-outs that look alike come from different tables or passages of the source. Bridge positions count the residues as written; N and C are the ends. Square brackets hold non-standard residues; d marks the D form. Peptide text beside a SMILES is read from it. S5 = C=CCCC[C@](C)(N)C(=O)O; Nle = CCCC[C@H](N)C(=O)O
# Legend:
# S. aureus = assay type: cell-based, Staphylococcus aureus
# Description: (§1) Antimicrobial Activity Assay:
# (§2) The following microbroth dilution protocol was adapted to determine the minimum inhibitory concentration (MIC) of each peptide. First, Mueller-Hinton broth (MHB) was passed through an anion exchange column to remove polyanionic species and generate refined MHB. […] Briefly, bacterial cells was grown overnight in refined MHB at 37° C. and then diluted and allowed to grow again for several hours. Serial dilutions of peptide stocks in water (10 μl) were prepared using clear round-bottom polypropylene 96-well plates. Then 90 μl of bacteria in refined MHB was added to give a final inoculum of 5×10^5 CFU/ml. The plates were then covered with porous tape to reduce evaporation, and incubated for 20-24 hours at 37° C. The MIC is the minimum peptide concentration at which no visible growth was observed.
# B. cereus = assay type: cell-based, Bacillus cereus
# Description: as §1, §2
# P. aeruginosa = assay type: cell-based, Pseudomonas aeruginosa
# Description: as §1, §2
# human red blood cells = assay type: cell-based
# Description: FIG. 5 is a series of line graphs depicting the hemolytic activity of magainin II and stapled analogues. Peptides were incubated with 1% (v/v) human red blood cells in phosphate-buffered solution for 1 hour at 37° C. and then the supernatant was isolated and the amount of hemoglobin released was measured at 540 nm. % hemolysis was calculated relative to an untreated control.
# Hemolytic Activity Assay:
# For the determination of hemolytic activity, human blood samples were centrifuged to isolate red blood cells (RBCs), which are then washed and suspended in phosphate-buffered saline to yield a 1% (v/v) suspension. The suspension was then added to serial dilutions of peptide stocks in water in clear round-bottom polypropylene 96-well plates and the plates were incubated for 1 hour at 37° C. After incubation, the plates were centrifuged and the supernatant was isolated to determine the amount of hemoglobin released using a spectrophotometer (570 nm), according to the equation: % Hemolysis=(Treated Absorbance−Untreated Control Absorbance)/(1% Triton-X100 Treated Absorbance−Untreated Control Absorbance). The minimum hemolytic concentration (MHC) is the peptide concentration at which there is less than 1% hemoglobin release.
# E. coli = assay type: cell-based, Escherichia coli
# Description: as §1, §2
Structure (SMILES),MIC S. aureus (S. aureus) [µg/mL],MIC B. cereus (B. cereus) [µg/mL],MIC P. aeruginosa (P. aeruginosa) [µg/mL],"% Hemolysis at 25 μg/ml (human red blood cells; red cells of human, 1 h, 25) [%]",MIC E. coli (E. coli) [µg/mL],hemolytic activity at concentrations 8-fold higher than its MIC (human red blood cells),% Hemolysis at 25 μg/ml (human red blood cells)
"CCCC[C@H](NC(=O)[C@@H](NC(=O)[C@H](CCC(=O)O)NC(=O)CNC(=O)[C@@H](NC(=O)[C@H](Cc1ccccc1)NC(=O)[C@H](C)NC(=O)[C@H](CCCCN)NC(=O)CNC(=O)[C@H](Cc1ccccc1)NC(=O)[C@H](CCCCN)NC(=O)[C@H](CCCCN)NC(=O)[C@H](C)NC(=O)[C@H](CO)NC(=O)[C@H](Cc1c[nH]cn1)NC(=O)[C@H](CC(C)C)NC(=O)[C@]1(C)CCCC=CCCC[C@](C)(N)C(=O)N[C@@H]([C@@H](C)CC)C(=O)NCC(=O)N[C@@H](CCCCN)C(=O)N1)C(C)C)[C@@H](C)CC)C(=O)N[C@@H](CC(N)=O)C(=O)N[C@@H](CO)C(N)=O [Mag(i + 4)0, XIGKXLHSAKKFGKAFVGEIBNS] (H-[S5]IGK[S5]LHSAKKFGKAFVGEI[Nle]NS-NH2; staple 1-5)",>50,12.5,50,4.8,3.1,,
"CCCC[C@H](NC(=O)[C@]1(C)CCCC=CCCC[C@](C)(NC(=O)[C@H](C)NC(=O)[C@H](CCCCN)NC(=O)CNC(=O)[C@H](Cc2ccccc2)NC(=O)[C@H](CCCCN)NC(=O)[C@H](CCCCN)NC(=O)[C@H](CCCCN)NC(=O)[C@H](CO)NC(=O)[C@H](Cc2c[nH]cn2)NC(=O)[C@]2(C)CCCC=CCCC[C@](C)(NC(=O)CN)C(=O)NCC(=O)N[C@@H](CCCCN)C(=O)N[C@@H](Cc3ccccc3)C(=O)N2)C(=O)N[C@@H](C(C)C)C(=O)NCC(=O)N[C@@H](CCC(=O)O)C(=O)N1)C(=O)N[C@@H](CC(N)=O)C(=O)N[C@@H](CO)C(N)=O [Mag(i + 4)1, 15(A9K), GXGKFXHSKKKFGKAXVGEXBNS] (H-G[S5]GKF[S5]HSKKKFGKA[S5]VGE[S5][Nle]NS-NH2; staple 2-6, 16-20)",50,25,3.1,2.4,1.6,little hemolytic activity,
"CCCC[C@H](NC(=O)[C@]1(C)CCCC=CCCC[C@](C)(NC(=O)[C@H](C)NC(=O)[C@H](CCCCN)NC(=O)CNC(=O)[C@H](Cc2ccccc2)NC(=O)[C@H](CCCCN)NC(=O)[C@H](CCCCN)NC(=O)[C@H](CCCCN)NC(=O)[C@H](Cc2c[nH]cn2)NC(=O)[C@H](Cc2c[nH]cn2)NC(=O)[C@]2(C)CCCC=CCCC[C@](C)(NC(=O)CN)C(=O)NCC(=O)N[C@@H](CCCCN)C(=O)N[C@@H](Cc3ccccc3)C(=O)N2)C(=O)N[C@@H](C(C)C)C(=O)N[C@@H](Cc2c[nH]cn2)C(=O)N[C@@H](CCC(=O)O)C(=O)N1)C(=O)N[C@@H](CCC(=O)O)C(=O)N[C@@H](CO)C(N)=O [Mag(i + 4)1, 15(S8H, A9K, G18H, N21E)] (H-G[S5]GKF[S5]HHKKKFGKA[S5]VHE[S5][Nle]ES-NH2; staple 2-6, 16-20; N-terminus assumed)",>50,50,12.5,4.2,3.1,,
"CCCC[C@H](NC(=O)[C@@H](NC(=O)[C@H](CCC(=O)O)NC(=O)CNC(=O)[C@@H](NC(=O)[C@H](Cc1ccccc1)NC(=O)[C@H](C)NC(=O)[C@H](CCCCN)NC(=O)CNC(=O)[C@H](Cc1ccccc1)NC(=O)[C@H](CCCCN)NC(=O)[C@H](CCCCN)NC(=O)[C@H](C)NC(=O)[C@H](CO)NC(=O)[C@H](Cc1c[nH]cn1)NC(=O)[C@]1(C)CCCC=CCCC[C@](C)(NC(=O)CN)C(=O)NCC(=O)N[C@@H](CCCCN)C(=O)N[C@@H](Cc2ccccc2)C(=O)N1)C(C)C)[C@@H](C)CC)C(=O)N[C@@H](CC(N)=O)C(=O)N[C@@H](CO)C(N)=O [Mag(i + 4)1, GXGKFXHSAKKFGKAFVGEIBNS] (H-G[S5]GKF[S5]HSAKKFGKAFVGEI[Nle]NS-NH2; staple 2-6)",>50,25,12.5,,3.1,,
"CCCC[C@H](NC(=O)[C@]1(C)CCCC=CCCC[C@](C)(NC(=O)[C@H](C)NC(=O)[C@H](CCCCN)NC(=O)CNC(=O)[C@H](Cc2ccccc2)NC(=O)[C@H](CCCCN)NC(=O)[C@H](CCCCN)NC(=O)[C@H](CCCCN)NC(=O)[C@H](CO)NC(=O)[C@]2(C)CCCC=CCCC[C@](C)(NC(=O)[C@@H](NC(=O)CN)[C@@H](C)CC)C(=O)N[C@@H](CCCCN)C(=O)N[C@@H](Cc3ccccc3)C(=O)N[C@@H](CC(C)C)C(=O)N2)C(=O)N[C@@H](C(C)C)C(=O)NCC(=O)N[C@@H](CCC(=O)O)C(=O)N1)C(=O)N[C@@H](CC(N)=O)C(=O)N[C@@H](CO)C(N)=O [Mag(i + 4)2, 15(A9K), GIXKFLXSKKKFGKAXVGEXBNS] (H-GI[S5]KFL[S5]SKKKFGKA[S5]VGE[S5][Nle]NS-NH2; staple 3-7, 16-20)",3.1,3.1,3.1,,1.6,,
"CCCC[C@H](NC(=O)[C@]1(C)CCCC=CCCC[C@](C)(NC(=O)[C@H](C)NC(=O)[C@H](CCCCN)NC(=O)CNC(=O)[C@H](Cc2ccccc2)NC(=O)[C@H](CCCCN)NC(=O)[C@H](CCCCN)NC(=O)[C@H](Cc2c[nH]cn2)NC(=O)[C@H](CO)NC(=O)[C@]2(C)CCCC=CCCC[C@](C)(NC(=O)[C@H](CCCCN)NC(=O)CN)C(=O)N[C@@H](CCCCN)C(=O)N[C@@H](Cc3ccccc3)C(=O)N[C@@H](CC(C)C)C(=O)N2)C(=O)N[C@@H](C(C)C)C(=O)NCC(=O)N[C@@H](CCC(=O)O)C(=O)N1)C(=O)N[C@@H](CCC(=O)O)C(=O)N[C@@H](CO)C(N)=O [Mag(i + 4)2, 15(I2K, A9H, N21E)] (H-GK[S5]KFL[S5]SHKKFGKA[S5]VGE[S5][Nle]ES-NH2; staple 3-7, 16-20)",50,25,12.5,1.8,3.1,,
"CCCC[C@H](NC(=O)[C@]1(C)CCCC=CCCC[C@](C)(NC(=O)[C@H](C)NC(=O)[C@H](CCCCN)NC(=O)CNC(=O)[C@H](Cc2ccccc2)NC(=O)[C@H](CCCCN)NC(=O)[C@H](CCCCN)NC(=O)[C@H](CCCCN)NC(=O)[C@H](CO)NC(=O)[C@]2(C)CCCC=CCCC[C@](C)(NC(=O)[C@H](CCCCN)NC(=O)CN)C(=O)N[C@@H](CCCCN)C(=O)N[C@@H](Cc3ccccc3)C(=O)N[C@@H](CC(C)C)C(=O)N2)C(=O)N[C@@H](C(C)C)C(=O)N[C@@H](Cc2c[nH]cn2)C(=O)N[C@@H](CCC(=O)O)C(=O)N1)C(=O)N[C@@H](CC(N)=O)C(=O)N[C@@H](CO)C(N)=O [Mag(i + 4)2, 15(I2K, A9K, G18H)] (H-GK[S5]KFL[S5]SKKKFGKA[S5]VHE[S5][Nle]NS-NH2; staple 3-7, 16-20)",25,12.5,3.1,2.2,3.1,,
"CCCC[C@H](NC(=O)[C@]1(C)CCCC=CCCC[C@](C)(NC(=O)[C@H](C)NC(=O)[C@H](CCCCN)NC(=O)CNC(=O)[C@H](Cc2ccccc2)NC(=O)[C@H](CCCCN)NC(=O)[C@H](CCCCN)NC(=O)[C@H](Cc2c[nH]cn2)NC(=O)[C@H](CO)NC(=O)[C@]2(C)CCCC=CCCC[C@](C)(NC(=O)[C@H](CCCCN)NC(=O)CN)C(=O)N[C@@H](CCCCN)C(=O)N[C@@H](Cc3ccccc3)C(=O)N[C@@H](CC(C)C)C(=O)N2)C(=O)N[C@@H](C(C)C)C(=O)NCC(=O)N[C@@H](CCC(=O)O)C(=O)N1)C(=O)N[C@@H](CC(N)=O)C(=O)N[C@@H](CO)C(N)=O [Mag(i + 4)2, 15(I2X, A9H)] (H-GK[S5]KFL[S5]SHKKFGKA[S5]VGE[S5][Nle]NS-NH2; staple 3-7, 16-20)",12.5,6.2,6.2,0.6,3.1,,completely eliminated
"CCCC[C@H](NC(=O)[C@@H](NC(=O)[C@H](CCC(=O)O)NC(=O)CNC(=O)[C@@H](NC(=O)[C@H](Cc1ccccc1)NC(=O)[C@H](C)NC(=O)[C@H](CCCCN)NC(=O)CNC(=O)[C@H](Cc1ccccc1)NC(=O)[C@]1(C)CCCC=CCCC[C@](C)(NC(=O)[C@H](CC(C)C)NC(=O)[C@H](Cc2ccccc2)NC(=O)[C@H](CCCCN)NC(=O)CNC(=O)[C@@H](NC(=O)CN)[C@@H](C)CC)C(=O)N[C@@H](CO)C(=O)N[C@@H](C)C(=O)N[C@@H](CCCCN)C(=O)N1)C(C)C)[C@@H](C)CC)C(=O)N[C@@H](CC(N)=O)C(=O)N[C@@H](CO)C(N)=O [Mag(i + 4)6, GIGKFLXSAKXFGKAFVGEIBNS] (H-GIGKFL[S5]SAK[S5]FGKAFVGEI[Nle]NS-NH2; staple 7-11)",25,12.5,25,,6.2,,
